Measurements: patent publication US20250312412A1, “METHODS FOR TREATING DRY EYE DISEASE” (The Schepens Eye Research Institute, Inc., priority 2022, published 2025)
Residues, ends and D or L forms follow the SMILES beside them.

Columns and labels:
[1] = tested on: human corneal epithelial cells; experiment: Co-culture of human corneal epithelial cells and Th17 cells, density and morphology by microscopy, Examples 2 and 3; format: cell-based; conditions: 0.1 μM, 1 μM, 10 μM and 100 μM; 24 hours
Experimental: A co-culture of human corneal epithelial cells and Th17 cells was prepared, to mimic the in vivo interaction between Th17 cells and cornea tissue in dry eye disease. The therapeutic efficacy of an IL-17 inhibitor to protect the human corneal epithelial cells from Th17-induced damage was tested. Immortalized human corneal epithelial cells were obtained. To acquire human Th17 cells, naïve CD4+ T cells were first purified from primary human peripheral blood mononuclear cells (StemCell) by negative selection using MACS separation, follow by in vitro polarization to Th17 cells using human Th17 cell differentiation kit (RnD Systems) in X-VIVO 15 medium (Lonza). Successful differentiation of human Th17 cells was confirmed by flow cytometry before co-culture. At about 80% confluence of human corneal epithelial cell culture, 1×10^5 Th17 cells were added, with and without an IL-17 inhibitor. After 24 hours of co-culture in the presence of the IL-17 inhibitor, the density and morphology of human corneal epithelial cells were observed under a bright-light inverted microscope equipped with a camera.
A co-culture of human corneal epithelial cells and Th17 cells was prepared, to mimic the in vivo interaction between Th17 cells and cornea tissue in dry eye disease. The therapeutic efficacy of an IL-17 inhibitor to protect the human corneal epithelial cells from Th17-induced damage was tested. […]

[2] = tested on: goblet cells; experiment: Goblet cell count in conjunctival tissue sections of dry eye mice, Example 1; format: in vivo; conditions: conjunctiva, mice with dry eye disease treated twice daily
Experimental: With continued reference to the study of Example 1, ocular tissue was harvested from the mice and tissue sections were prepared for microscopy analysis. Cross-sections of the conjunctiva were stained and the images were inspected to quantify goblet cell density. Goblet cells within the conjunctival epithelium secrete mucins onto the surface of the eye. FIG. 3A is an image of conjunctiva from a healthy mouse with no dry eye disease, and the goblet cells are visible as the darkly stained, plump cells. FIGS. 3B-3E are images from the conjunctiva from a subject in the animals with dry eye disease and treated twice daily with saline as a control (FIG. 3B), cyclosporine ophthalmic emulsion (RESTASIS®; FIG. 3C), lifitegrast ophthalmic solution (XIIDRA®) (FIG. 3D), or anti-IL-17A antibody (FIG. 3E). The numbers of goblet cells were counted, and FIG. 3F is a bar graph of the percent of normal goblet cells for the normal (healthy) mice and mice with dry eye disease treated with saline, cyclosporine, lifitegrast or an IL-17A inhibitor. […] Subjects with dry eye disease and treated with cyclosporine or with lifitegrast had about 60% of the normal number of goblet cells. […]

[3] = tested on: mice induced with dry eye disease; experiment: Corneal fluorescein staining (CFS) score in mice with induced dry eye disease, Example 1; format: in vivo; conditions: topical to the eye, day 4 to day 12; antibody 1 wt % once or twice daily, lifitegrast 5 wt % twice daily, cyclosporine 0.05 wt % twice daily
Experimental: FIG. 1 is a graph of corneal fluorescein staining (CFS) scored using the National Eye Institute Industry Workshop Scale of 0-15, as a function of time, in days, in mice induced with dry eye disease by placing them in a controlled-environment chamber (relative humidity: <20%, dry airflow: 15 L/min, temperature: 21˜23° C.) for 14 days. Corneal epithelial disease was evaluated using corneal fluorescein staining (CFS) and scored using the National Eye Institute Industry Workshop Scale of 0-15, at day 0 (normal baseline), day 4 (before instillation of topical therapy), day 7, day 10, and […] in mice treated by topical application to the eye with an anti-IL-17A antibody once daily (closed circles) or twice daily (closed squares), lifitegrast (XIIDRA®) twice daily (inverted triangles), cyclosporine (RESTASIS®) twice daily (triangles), or saline twice daily (diamonds).
In a first study, described in Example 1, treatment of dry eye disease with an IL-17 cytokine inhibitor, lifitegrast ophthalmic solution (XIIDRA®), and cyclosporine ophthalmic emulsion (RESTASIS®) were compared. […] The test compounds were applied topically to the eye for 9 days (from day 4 to day 12), and disease severity was evaluated using corneal fluorescein staining (CFS) and scored using the National Eye Institute Industry Workshop Scale of 0-15 on days 4, 7, 10 and 12. […]

Structure (SMILES) | toxicity to human corneal epithelial cells [1] | goblet cells, percent of the normal number [2] | effect on dry eye disease severity (disease score, CFS) [3]
CC[C@H](C)[C@H](NC(=O)[C@H](Cc1c[nH]c2ccccc12)NC(=O)[C@H](CC(=O)O)NC(=O)[C@H](Cc1c[nH]c2ccccc12)NC(=O)[C@H](CC(C)C)NC(=O)[C@H](CC(=O)O)NC(=O)[C@H](C)NC(=O)[C@@H]1CCCN1C(=O)[C@@H](NC(=O)[C@@H](NC(=O)[C@@H](NC(=O)[C@H](Cc1c[nH]cn1)NC(=O)[C@@H](N)C(C)C)C(C)C)[C@@H](C)O)[C@@H](C)CC)C(=O)N[C@@H](CC(N)=O)C(=O)N[C@@H](CCCCN)C(=O)O [SEQ ID NO: 1, VHVTIPADLWDWINK] (H-VHVTIPADLWDWINK-OH) | not toxic to the human corneal epithelial cells |  | 
CS(=O)(=O)c1cccc(C[C@H](NC(=O)c2c(Cl)cc3c(c2Cl)CCN(C(=O)c2ccc4ccoc4c2)C3)C(=O)O)c1 [lifitegrast] |  | about 60% | no improvement in reducing in disease severity for the first six days of treatment, followed by an improved disease score at day 12
